This is an account of results in patent publication US8613914B2, “Peptidomimetic sulfamide compounds and antiviral uses thereof” (Novartis AG, priority 2009, dated 2013).

The structures appear in SMILES notation.

In the assay the target is HCV NS3-4A serine protease (full-length NS3-4A protein) (Hepatitis C virus genotype 1a (isolate 1) (HCV), UniProt P26664). Description: HCV NS3-4A protease assay. The note with it: strain HCV-1, fluorogenic peptide substrate, read-out: Protease assay Ex. 12 IC50. In kind it is biochemical, HCV genotype 1a. As to the method: The inhibitory activity of certain compounds of Table A against HCV NS3-4A serine protease is determined in a homogenous assay using the full-length NS3-4A protein (genotype 1a, strain HCV-1) and a commercially available internally-quenched fluorogenic peptide substrate as described by Taliani, M., et al. 1996 Anal. Biochem. 240:60-67, which is incorporated by reference in its entirety.
Sequence of HCV NS3-4A serine protease (full-length NS3-4A protein) (P26664 1027-1657): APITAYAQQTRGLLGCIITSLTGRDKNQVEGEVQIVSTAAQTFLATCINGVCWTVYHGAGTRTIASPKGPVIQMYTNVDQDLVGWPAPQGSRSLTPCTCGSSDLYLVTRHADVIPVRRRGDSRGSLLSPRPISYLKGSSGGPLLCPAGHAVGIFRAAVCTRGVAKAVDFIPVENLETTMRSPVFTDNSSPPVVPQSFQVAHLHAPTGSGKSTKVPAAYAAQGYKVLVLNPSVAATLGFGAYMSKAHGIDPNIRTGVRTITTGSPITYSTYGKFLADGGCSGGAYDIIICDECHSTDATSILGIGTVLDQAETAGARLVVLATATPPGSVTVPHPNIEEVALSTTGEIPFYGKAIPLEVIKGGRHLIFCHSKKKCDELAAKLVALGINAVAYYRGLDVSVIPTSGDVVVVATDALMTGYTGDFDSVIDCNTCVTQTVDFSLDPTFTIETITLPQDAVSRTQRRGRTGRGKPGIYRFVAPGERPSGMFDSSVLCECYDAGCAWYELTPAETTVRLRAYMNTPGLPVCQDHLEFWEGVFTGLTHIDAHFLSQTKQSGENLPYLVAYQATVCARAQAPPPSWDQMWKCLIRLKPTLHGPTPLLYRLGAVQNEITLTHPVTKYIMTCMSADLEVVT
Sequence of HCV NS3-4A serine protease (full-length NS3-4A protein) (P26664 1658-1711 partner): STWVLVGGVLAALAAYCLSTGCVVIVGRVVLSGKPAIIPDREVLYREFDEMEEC
In the case of `C=C[C@@H]1C[C@]1(NC(=O)[C@@H]1C[C@@]2(CN1C(=O)[C@@H](NC(=O)[C@@H](NC(=O)[C@@H]1CCCN1C(C)C)C1CCCCC1)C(C)(C)C)C(C)(C)C21CCC1)C(=O)NS(=O)(=O)N1CCCC1` [Compound 15, (5R,8S)-7-[(2S)-2-{[(2S)-2-cyclohexyl-2-({[(2S)-1-isopropylpyrrolidin-2-yl]carbonyl}amino)acetyl]amino}-3,3-dimethylbutanoyl]-10,10-dimethyl-N-{(1R,2S)-1-[(pyrrolidin-1-ylsulfonyl)carbamoyl]-2-vinylcyclopropyl}-7-azadispiro[3.0.4.1]decane-8-carboxamide], the IC50 was found to be 2 nM.
The value for `[2H]C([2H])([2H])C([2H])([2H])N1CCCC[C@H]1C(=O)NC(C(=O)N[C@H](C(=O)N1C[C@]2(C[C@H]1C(=O)N[C@]1(C(=O)NS(=O)(=O)N3CCCC3)C[C@H]1C=C)C(C)(C)C21CCC1)C(C)(C)C)C1CCCCC1` (stereo partly drawn) [Compound 139, (5R,8S)-7-[(2S)-2-{[(2S)-2-cyclohexyl-2-({[(2S)-1-d5-ethylpiperidin-2-yl]carbonyl}amino)acetyl]amino}-3,3-dimethylbutanoyl]-10,10-dimethyl-N-{(1R,2S)-1-[(pyrrolidin-1-ylsulfonyl)carbamoyl]-2-vinylcyclopropyl}-7-azadispiro[3.0.4.1]decane-8-carboxamide-d5] was 3.5 nM.
With `C=C[C@@H]1C[C@]1(NC(=O)[C@@H]1C[C@@]2(CN1C(=O)[C@@H](NC(=O)[C@@H](N1CCCC1=O)C(C)(C)C)C(C)(C)C)C(C)(C)C21CCC1)C(=O)NS(=O)(=O)N1CCCC1` [Compound 9, (5R,8S)-7-[(2S)-2-{[(2S)-3,3-dimethyl-2-(2-oxopyrrolidin-1-yl)butanoyl]amino}-3,3-dimethylbutanoyl]-10,10-dimethyl-N-{(1R,2S)-1-[(pyrrolidin-1-ylsulfonyl)carbamoyl]-2-vinylcyclopropyl}-7-azadispiro[3.0.4.1]decane-8-carboxamide] the figure was 100 nM.
With `C=C[C@@H]1C[C@]1(NC(=O)[C@@H]1C[C@@]2(CN1C(=O)[C@@H](NC(=O)[C@@H](NC(=O)[C@@H]1CCC(F)(F)CN1C(C)C)C1CCCCC1)C(C)(C)C)C(C)(C)C21CCC1)C(=O)NS(=O)(=O)N1CCCC1` [Compound 105, (5R,8S)-7-[(2S)-2-{[(2S)-2-cyclohexyl-2-({[(2S)-5,5-difluoro-1-isopropylpiperidin-2-yl]carbonyl}amino)acetyl]amino}-3,3-dimethylbutanoyl]-10,10-dimethyl-N-{(1R,2S)-1-[(pyrrolidin-1-ylsulfonyl)carbamoyl]-2-vinylcyclopropyl}-7-azadispiro[3.0.4.1]decane-8-carboxamide] the figure was 45 nM.
For the molecule `C=C[C@@H]1C[C@]1(NC(=O)[C@@H]1C[C@@]2(CN1C(=O)[C@@H](NC(=O)[C@@H](NC(=O)[C@@H]1CCCN1C(C)C)C1CCCCC1)C(C)(C)C)C(C)(C)C21CCC1)C(=O)NS(=O)(=O)N(CC)CC` [Compound 62, (5R,8S)-7-[(2S)-2-{[(2S)-2-cyclohexyl-2-({[(2S)-1-isopropylpyrrolidin-2-yl]carbonyl}amino)acetyl]amino}-3,3-dimethylbutanoyl]-N-[(1R,2S)-1-{[(diethylamino)sulfonyl]carbamoyl}-2-vinylcyclopropyl]-10,10-dimethyl-7-azadispiro[3.0.4.1]decane-8-carboxamide], the half-maximal inhibitory concentration (IC50) stood at 1 nM.
With `C=C[C@@H]1C[C@]1(NC(=O)[C@@H]1C[C@@]2(CN1C(=O)[C@@H](NC(=O)[C@@H](NC(=O)[C@@H]1CCCCN1C(C)C)C1CCCCC1)C(C)(C)C)C(C)(C)C21CCC1)C(=O)NS(=O)(=O)N(C)OC` [Compound 55, (5R,8S)-7-[(2S)-2-{[(2S)-2-cyclohexyl-2-({[(2S)-1-isopropylpiperidin-2-yl]carbonyl}amino)acetyl]amino}-3,3-dimethylbutanoyl]-N-[(1R,2S)-1-({[methoxy(methyl)amino]sulfonyl}carbamoyl)-2-vinylcyclopropyl]-10,10-dimethyl-7-azadispiro[3.0.4.1]decane-8-carboxamide] the figure was 1.4 nM; with `C=C[C@@H]1C[C@]1(NC(=O)[C@@H]1C[C@@]2(CN1C(=O)[C@@H](NC(=O)[C@@H](NC(=O)C(C)(C)N1CCCC1)C1CCCCC1)C(C)(C)C)C(C)(C)C21CCC1)C(=O)NS(=O)(=O)N1CCCC1` [Compound 14, (5R,8S)-7-[(2S)-2-({(2S)-2-cyclohexyl-2-[(2-methyl-2-pyrrolidin-1-ylpropanoyl)amino]acetyl}amino)-3,3-dimethylbutanoyl]-10,10-dimethyl-N-{(1R,2S)-1-[(pyrrolidin-1-ylsulfonyl)carbamoyl]-2-vinylcyclopropyl}-7-azadispiro[3.0.4.1]decane-8-carboxamide], 3 nM; with `C=C[C@@H]1C[C@]1(NC(=O)[C@@H]1C[C@@]2(CN1C(=O)[C@@H](NC(=O)[C@@H](NC(=O)CN1CCN(C)CC1)C1CCCCC1)C(C)(C)C)C(C)(C)C21CCC1)C(=O)NS(=O)(=O)N1CCCC1` [Compound 202, (5R,8S)-7-{(2S)-2-[(cyclohexyl{[(4-methylpiperazin-1-yl)acetyl]amino}acetyl)amino]-3,3-dimethylbutanoyl}-10,10-dimethyl-N-{(1R,2S)-1-[(pyrrolidin-1-ylsulfonyl)carbamoyl]-2-vinylcyclopropyl}-7-azadispiro[3.0.4.1]decane-8-carboxamide], 20 nM.
The value for `C=C[C@@H]1C[C@]1(NC(=O)[C@@H]1C[C@@]2(CN1C(=O)[C@@H](NC(=O)[C@@H](NC(=O)[C@@H]1CCCCN1C(C)C)C1CCCCC1)C(C)C)C(C)(C)C21CCC1)C(=O)NS(=O)(=O)N(CC)CC` [Compound 132, (5R,8S)-7-[(2S)-2-{[(2S)-2-cyclohexyl-2-({[(2S)-1-isopropylpiperidin-2-yl]carbonyl}amino)acetyl]amino}-3-methylbutanoyl]-N-[(1R,2S)-1-{[(diethylamino)sulfonyl]carbamoyl}-2-vinylcyclopropyl]-10,10-dimethyl-7-azadispiro[3.0.4.1]decane-8-carboxamide] was 2.8 nM; that for `C=C[C@@H]1C[C@]1(NC(=O)[C@@H]1C[C@@]2(CN1C(=O)[C@@H](NC(=O)[C@@H](NC(=O)[C@@H]1CCCCN1C(C)C)C1CCCCC1)C(C)(C)C)C(C)(C)C21CCC1)C(=O)NS(=O)(=O)N(C)CCC` [Compound 112, (5R,8S)-7-[(2S)-2-{[(2S)-2-cyclohexyl-2-({[(2S)-1-isopropylpiperidin-2-yl]carbonyl}amino)acetyl]amino}-3,3-dimethylbutanoyl]-10,10-dimethyl-N-[(1R,2S)-1-({[methyl(propyl)amino]sulfonyl}carbamoyl)-2-vinylcyclopropyl]-7-azadispiro[3.0.4.1]decane-8-carboxamide] was 1.4 nM; that for `C=C[C@@H]1C[C@]1(NC(=O)[C@@H]1C[C@@]2(CN1C(=O)[C@@H](NC(=O)[C@@H](NC(=O)[C@@H]1CCCCN1C(C)C)C1CCCCC1)C(C)(C)C)C(C)(C)C21CCC1)C(=O)NS(=O)(=O)N1CC[C@@H](F)C1` [Compound 45, (5R,8S)-7-[(2S)-2-{[(2S)-2-cyclohexyl-2-({[(2S)-1-isopropylpiperidin-2-yl]carbonyl}amino)acetyl]amino}-3,3-dimethylbutanoyl]-N-[(1R,2S)-1-({[(3R)-3-fluoropyrrolidin-1-yl]sulfonyl}carbamoyl)-2-vinylcyclopropyl]-10,10-dimethyl-7-azadispiro[3.0.4.1]decane-8-carboxamide] was 1 nM.
In the case of `C=CC1CC1(NC(=O)[C@@H]1C[C@@]2(CN1C(=O)[C@@H](NC(=O)[C@@H](NC(=O)C1CCCCN1C(C)C)C1CCCCC1)C(C)(C)C)C(C)(C)C21CCC1)C(=O)NS(=O)(=O)N1CC(F)(F)C1` (stereo partly drawn) [Compound 164, (5R,8S)-7-[(2S)-2-{[(2S)-2-cyclohexyl-2-{[(1-isopropylpiperidin-2-yl)carbonyl]amino}acetyl]amino}-3,3-dimethylbutanoyl]-N-(1-{[(3,3-difluoroazetidin-1-yl)sulfonyl]carbamoyl}-2-vinylcyclopropyl)-10,10-dimethyl-7-azadispiro[3.0.4.1]decane-8-carboxamide], the half-maximal inhibitory concentration (IC50) turned out to be 8 nM.
In the case of `C=C[C@@H]1C[C@]1(NC(=O)[C@@H]1C[C@@]2(CN1C(=O)[C@@H](NC(=O)[C@@H](NC(=O)[C@@H]1CCCN1CC)C(C)(C)C)C1(C)CCOCC1)C(C)(C)C21CCC1)C(=O)NS(=O)(=O)N1CCCC1` [Compound 126, 1-ethyl-L-prolyl-N-[(1S)-2-[(5R,8S)-10,10-dimethyl-8-({(1R,2S)-1-[(pyrrolidin-1-ylsulfonyl)carbamoyl]-2-vinylcyclopropyl}carbamoyl)-7-azadispiro[3.0.4.1]dec-7-yl]-1-(4-methyltetrahydro-2H-pyran-4-yl)-2-oxoethyl]-3-methyl-L-valinamide], the half-inhibitory concentration (IC50) came to 6 nM.
The value for `C=C[C@@H]1C[C@]1(NC(=O)[C@@H]1C[C@@]2(CN1C(=O)[C@@H](NC(=O)[C@@H](NC(=O)[C@@H]1CCCCN1C(C)C)C1CCCCC1)C(C)(C)C)C(C)(C)C21CCC1)C(=O)NS(=O)(=O)N(C)CC` [Compound 170, (5R,8S)-7-[(2S)-2-{[(2S)-2-cyclohexyl-2-({[(2S)-1-isopropylpiperidin-2-yl]carbonyl}amino)acetyl]amino}-3,3-dimethylbutanoyl]-N-[(1R,2S)-1-({[ethyl(methyl)amino]sulfonyl}carbamoyl)-2-vinylcyclopropyl]-10,10-dimethyl-7-azadispiro[3.0.4.1]decane-8-carboxamide] was 0.5 nM; that for `C=C[C@@H]1C[C@]1(NC(=O)[C@@H]1C[C@@]2(CN1C(=O)[C@@H](NC(=O)[C@@H](NC(=O)[C@@H]1CCCN1CCF)C1CCCCC1)C1CCOCC1)C(C)(C)C21CCC1)C(=O)NS(=O)(=O)N1CCCC1` [Compound 73, (5R,8S)-7-[(2S)-2-{[(2S)-2-cyclohexyl-2-({[(2S)-1-(2-fluoroethyl)pyrrolidin-2-yl]carbonyl}amino)acetyl]amino}-2-(tetrahydro-2H-pyran-4-yl)acetyl]-10,10-dimethyl-N-{(1R,2S)-1-[(pyrrolidin-1-ylsulfonyl)carbamoyl]-2-vinylcyclopropyl}-7-azadispiro[3.0.4.1]decane-8-carboxamide] was 15 nM.

A word on the IC50: it is the midpoint of a concentration-inhibition curve.
